Tested on: HeLa cells
Format: cell-based

Substance: cytosine arabinose [Ara C]
- effect on β-galactosidase expression from vSC8 (late vaccinia promoter P11): completely blocked

From patent US20060166189A1, “Methods for detecting invasion of a cell” (priority 2002, published 2006)
